Laboratory results as given in ChEMBL document CHEMBL1131354 (Bioorg Med Chem Lett, 1998).

Biological target: T1, Melatonin receptor type 1B (Gallus gallus, UniProt P51050)
T1 sequence (P51050 whole entry): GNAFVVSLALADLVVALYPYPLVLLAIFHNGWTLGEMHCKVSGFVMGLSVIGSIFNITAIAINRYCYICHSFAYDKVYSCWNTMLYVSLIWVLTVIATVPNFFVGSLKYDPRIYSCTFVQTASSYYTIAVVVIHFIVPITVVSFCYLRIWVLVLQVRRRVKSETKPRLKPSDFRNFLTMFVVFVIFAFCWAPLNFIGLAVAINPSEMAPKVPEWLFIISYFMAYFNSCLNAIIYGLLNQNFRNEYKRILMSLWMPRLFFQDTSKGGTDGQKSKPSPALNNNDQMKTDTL
Test: Binding affinity measured against Chicken brain melatonin receptor by using 2-[125I]iodomelatonin as radioligand

Row | Compound | Ki [µM]
1 | CCC(=O)NCC1CCCc2ccc(OC)cc21 (single isomer, unassigned; (-)) | > 1
2 | CCC(=O)NCC1CCc2ccc(OC)cc21 (single isomer, unassigned; (-)) | 0.456
3 | CCC(=O)NCC1CCCc2ccc(OC)cc21 (single isomer, unassigned; (+)) | 0.00045
4 | CCC(=O)NCC1CCCCc2ccc(OC)cc21 (configuration not stated) | 0.029
5 | CCC(=O)NCC1CCc2ccc(OC)cc21 (single isomer, unassigned; (+)) | 0.003
6 | CCCC(=O)NCC1CCc2ccc(OC)cc21 (configuration not stated) | 0.0076
7 | CCC(=O)NCC1CCc2ccc(OC)cc21 (racemic) | 0.016
8 | COc1cccc2c1CC(NC(C)=O)CC2 (configuration not stated) | 0.161
9 | CCCC(=O)NCC1Cc2ccc(OC)cc21 (configuration not stated) | 0.049
10 | COc1ccc2c(c1)C(CNC(C)=O)C2 (configuration not stated) | 0.224
11 | COc1ccc2c(c1)C(CNC(C)=O)CCCC2 (configuration not stated) | 0.034
12 | CCC(=O)NCC1CCCc2ccc(OC)cc21 (racemic) | 0.00053
13 | COc1ccc2c(c1)C(CNC(C)=O)CCC2 (configuration not stated) | 0.004
14 | COc1ccc2c(c1)C(CNC(C)=O)CC2 (configuration not stated) | 0.077
15 | CCC(=O)NCC1Cc2ccc(OC)cc21 (configuration not stated) | 0.04
16 | CCCC(=O)NCC1CCCc2ccc(OC)cc21 (configuration not stated) | 0.00045
17 | CCCC(=O)NCC1CCCCc2ccc(OC)cc21 (configuration not stated) | 0.001
